Data published in patent publication US12427134B2, “Methods of reducing the risk of cardiovascular events in a subject with atrial fibrillation and/or atrial flutter” (priority 2019, dated 2025).
Read-outs that look alike come from different tables or passages of the source.

Key:
[1] = tested on: hypertriglyceridemic patients with cardiovascular disease or at high risk for cardiovascular disease; conditions: human, in vivo
Method: Specification of Variables and Procedures: Safety assessments included adverse events, clinical laboratory measurements (chemistry, hematology), 12-lead ECGs, vital signs (systolic and diastolic blood pressure, heart rate, respiratory rate, and body temperature), weight, waist circumference, and physical examinations as per Study Procedures in Table 1. […] All laboratory test results were evaluated by the investigator as to their clinical significance. Any observations at physical examinations or laboratory values considered by the investigator to be clinically significant were considered an adverse event.
An adverse event can therefore be any unfavorable and/or unintended sign (including an abnormal laboratory finding), symptom, or disease temporally associated with the use of an investigational medication product, whether or not related to the investigational medication product. All adverse events, including observed or volunteered problems, complaints, or symptoms, were recorded on the appropriate CRF. Each adverse event was evaluated for duration, intensity, and causal relationship with the study medication or other factors.
Adverse events, which included clinical laboratory test variables, were monitored from the time of informed consent until study participation was complete. Patients were instructed to report any adverse event that they experienced to the investigator. Beginning with Visit 2, investigators assessed for adverse events at each visit and recorded the event on the appropriate adverse event CRF.
Causality Assessment: The relationship of an adverse event to the administration of the study drug was assessed according to the following definitions: • No (unrelated, not related, no relation)—The time course between the administration of study drug and the occurrence or worsening of the adverse event rules out a causal relationship and another cause (concomitant drugs, therapies, complications, etc.) is suspected. • Yes (related, probably related, possibly related)—The time course between the administration of study drug and the occurrence or worsening of the adverse event is consistent with a causal relationship and no other cause (concomitant drugs, therapies, complications, etc.) can be identified.
Serious Adverse Events: A serious adverse event (SAE) is defined as an adverse event that meets any of the following criteria: • Results in death; • Is life-threatening—The term “life-threatening” in the definition of “serious” refers to an event in which the patient was at risk of death at the time of the event. […] Important medical events that may not result in death, be life threatening, or require hospitalization were considered an SAE when, based upon appropriate medical judgment, they may have jeopardized the patient and may have required medical or surgical intervention to prevent one of the outcomes listed above.
Analysis of Safety: All analyses of safety were conducted on the safety population, which was defined as all randomized patients. The safety assessment was based on the frequency of adverse events, physical exams, vital signs and safety laboratory tests. AEs with new onset during the study between the initiation of study drug and 30 days after the last dose of study drug for each patient was considered treatment-emergent (TEAEs). This included any AE with onset prior to initiation of study drug and increased severity after the treatment initiation.
This included overall incidence rates (regardless of severity and relationship to study drug), and incidence rates for moderate or severe adverse events. A summary of SAEs and adverse events leading to early discontinuation (for ≥30 days) were presented through data listings. Patients who restarted study drug were included in the summary of AEs leading to discontinuation.

[2] = tested on: hypertriglyceridemic patients with cardiovascular disease or at high risk for cardiovascular disease; assay: REDUCE-IT: total (first and subsequent/recurrent) ischemic events analyses (negative binomial, Andersen-Gill, Wei-Lin-Weissfeld, joint frailty); assay type: in vivo, human; conditions: for Cardiovascular Death, HR (95% CI) / Non-fatal Cardiovascular Event, HR (95% CI): joint frailty model; for Key secondary composite endpoint, HR (95% CI) / Primary composite endpoint, HR (95% CI): modified WLW
Method: The primary outcome for the study was total recurrent events consisting of the composite of cardiovascular death, nonfatal myocardial infarction, nonfatal stroke, coronary revascularization, or hospitalization for unstable angina. Recurrent event analyses were also performed for the key secondary endpoint, a composite of cardiovascular death, non fatal myocardial infarction, or non-fatal stroke. For each of these composite endpoints, the effects of icosapent ethyl in the secondary and primary prevention strata were examined separately.
Demographic and baseline disease characteristics are presented using frequencies and percentages for categorical variables and medians with interquartile ranges for continuous variables. Between treatment group comparisons were derived using the chi-square test for categorical variables and Wilcoxon rank test for continuous variables. All clinical endpoint events used in the efficacy analyses were adjudicated by an independent Clinical Endpoint Committee (CEC) who were blinded to the treatment assignment. Since the primary efficacy endpoint was the time from randomization to the first occurrence of any component of the composite endpoint, and recurrence of such events within each patient is possible, a pre-specified analysis using a Cox proportional-hazard with the counting-process formulation of Andersen and Gill was performed to model the first and all recurrent cardiovascular events. Hazard ratios (HR) and corresponding 95% confidence intervals (CI) are reported from this model. In addition, as a marginal model and an extension of survival models based on the Cox proportional hazard model, the modified Wei-Lin-Weissfeld (WLW) method for analysis of recurrent events in the presence of deaths was carried out as a supportive analysis. In addition, as pre-specified, a recurrent event analysis using the Andersen-Gill and Wei-Lin-Weissfeld methods were carried out for the individual primary event components other than CV death. Though not pre-specified, additional recurrent event analyses were performed for the key secondary endpoint, which is a composite of CV death, non-fatal MI, or non-fatal stroke, and for the primary endpoint and the key secondary endpoint in the primary and secondary prevention strata to explore further the consistency of clinical benefit of icosapent ethyl. In subgroup analyses of the two cardiovascular risk strata (i.e., primary and secondary prevention), site-level discrepancies in cardiovascular risk group assignment occurring at entry and detected during the study (1.8%) were adjusted to conform with documented medical history data prior to randomization. All efficacy analyses were performed according to the intention-to-treat principle. All tests were based on a 2-sided nominal significance level of 5% with no adjustments for multiple comparisons.
The following study was a multi-center, placebo-controlled clinical trial the details of which are described above in Example 1, the REDUCE-IT design. […] The main outcomes were total primary composite endpoint events defined as cardiovascular death, nonfatal myocardial infarction, nonfatal stroke, coronary revascularization, or hospitalization for unstable angina and total key secondary composite endpoint events defined as cardiovascular death, nonfatal myocardial infarction, or nonfatal stroke. In the context of this study, total events refer to any first event as well as any subsequent event. Differences in total events were determined using other statistical models, including Andersen-Gill, Wei-Lin-Weisfeld (Li and Lagakos), both pre-specified, and a post hoc and joint-frailty analysis.
For the present prespecified analysis, the primary outcome was the total of first plus subsequent ischemic events consisting of the composite of cardiovascular death, nonfatal myocardial infarction, nonfatal stroke, coronary revascularization, or hospitalization for unstable angina. […]

[3] = Andersen-Gill (I), adjusted, full dataset
[4] = Andersen-Gill (I), adjusted, reduced dataset
[5] = Andersen-Gill (I), unadjusted, full dataset
[6] = Andersen-Gill (I), unadjusted, reduced dataset
[7] = Andersen-Gill (II), adjusted, full dataset
[8] = Andersen-Gill (II), adjusted, reduced dataset
[9] = Andersen-Gill (II), unadjusted, full dataset
[10] = Andersen-Gill (II), unadjusted, reduced dataset
[11] = as summarised in the Example 6 conclusion
[12] = including same-day recurrent events, ITT, denominator total number of events in category
[13] = key secondary endpoint, adjusted, reduced dataset
[14] = key secondary endpoint, unadjusted, reduced dataset
[15] = primary endpoint, adjusted, reduced dataset
[16] = primary endpoint, unadjusted, reduced dataset
[17] = first event, adjusted, full dataset
[18] = first event, adjusted, reduced dataset
[19] = first event, unadjusted, full dataset
[20] = first event, unadjusted, reduced dataset
[21] = second event, adjusted, full dataset
[22] = second event, adjusted, reduced dataset
[23] = second event, unadjusted, full dataset
[24] = second event, unadjusted, reduced dataset
[25] = third event, adjusted, full dataset
[26] = third event, adjusted, reduced dataset
[27] = third event, unadjusted, full dataset
[28] = third event, unadjusted, reduced dataset
[29] = negative binomial, adjusted, full dataset
[30] = negative binomial, adjusted, reduced dataset
[31] = negative binomial, unadjusted, full dataset
[32] = negative binomial, unadjusted, reduced dataset
[33] = per 100 patients treated for five years
[34] = per 1000 patients treated for five years
[35] = primary composite endpoint, after reduction, share of overall events in category
[36] = total events including same-day recurrent events, ITT, denominator total number of events in category

CC/C=C\C/C=C\C/C=C\C/C=C\C/C=C\CCCC(=O)OCC [AMR101, eicosapentaenoic acid ethyl ester]
TEAE: Infections and infestations, % ([1]; female): (48.9) %
SAE class infections and infestations, patients [1]: 8.1%
Serious adverse event - Infections and infestations (SOC), % patients [1]: (8.1) %
Serious adverse event - Infections and infestations (SOC), n patients [1]: 332
Serious adverse event - Sepsis, % patients [1]: (0.6) %
Serious adverse event - Sepsis, n patients [1]: 25
Serious adverse event - Urinary tract infection, % patients [1]: (0.6) %
Serious adverse event - Urinary tract infection, n patients [1]: 25
Severe TEAE class infections and infestations, patients [1]: 5.1%
Severe TEAE: Infections and infestations, % [1]: (5.1) %
Severe TEAE: Sepsis, % [1]: (0.5) %
Severe TEAE: Urinary tract infection, % [1]: (0.3) %
TEAE class infections and infestations, patients [1]: 44.6%
TEAE: Upper respiratory tract infection, % [1]: (7.6) %
TEAE: Urinary tract infection, % [1]: (6.2) %
TEAE: Infections and infestations, % ([1]; male): (42.8) %
Total key secondary composite endpoint events, HR (95% CI) [2, 3]: 0.71
Total primary composite endpoint events, HR (95% CI) [2, 3]: 0.68
Total key secondary composite endpoint events, HR (95% CI) [2, 4]: 0.72
Total primary composite endpoint events, HR (95% CI) [2, 4]: 0.69
Total key secondary composite endpoint events, HR (95% CI) [2, 5]: 0.71
Total primary composite endpoint events, HR (95% CI) [2, 5]: 0.68
Total key secondary composite endpoint events, HR (95% CI) [2, 6]: 0.72
Total primary composite endpoint events, HR (95% CI) [2, 6]: 0.69
Total key secondary composite endpoint events, HR (95% CI) [2, 7]: 0.71
Total primary composite endpoint events, HR (95% CI) [2, 7]: 0.68
Total key secondary composite endpoint events, HR (95% CI) [2, 8]: 0.72
Total primary composite endpoint events, HR (95% CI) [2, 8]: 0.69
Total key secondary composite endpoint events, HR (95% CI) [2, 9]: 0.71
Total primary composite endpoint events, HR (95% CI) [2, 9]: 0.68
Total key secondary composite endpoint events, HR (95% CI) [2, 10]: 0.72
Total primary composite endpoint events, HR (95% CI) [2, 10]: 0.69
Total key secondary endpoints, number of events ([2]; Example 2, overall, 861 with placebo): 590
Total key secondary endpoint events, rate ratio ([2]; Example 3): 0.72
Total key secondary endpoint events, rate ratio [2, 11]: 0.71
Total primary endpoint events, rate ratio [2, 11]: 0.69
Key Secondary Endpoint Events: Others, % [2, 12]: (52.9) %
Key Secondary Endpoint Events: ≥1 event, % [2, 12]: (43.1) %
Key Secondary Endpoint Events: ≥2 events, % [2, 12]: (37.9) %
Key Secondary Endpoint Events: ≥3 events, % [2, 12]: (35.1) %
Key Secondary Endpoint Events: ≥4 events, % [2, 12]: (42.9) %
Primary Endpoint Events: Others, % [2, 12]: (35.0) %
Primary Endpoint Events: ≥1 event, % [2, 12]: (43.9) %
Primary Endpoint Events: ≥2 events, % [2, 12]: (39.2) %
Primary Endpoint Events: ≥3 events, % [2, 12]: (35.3) %
Primary Endpoint Events: ≥4 events, % [2, 12]: (27.9) %
Cardiovascular Death, HR (95% CI) [2, 13]: 0.79
Non-fatal Cardiovascular Event, HR (95% CI) [2, 13]: 0.68
Cardiovascular Death, HR (95% CI) [2, 14]: 0.79
Non-fatal Cardiovascular Event, HR (95% CI) [2, 14]: 0.68
Cardiovascular Death, HR (95% CI) [2, 15]: 0.80
Non-fatal Cardiovascular Event, HR (95% CI) [2, 15]: 0.67
Cardiovascular Death, HR (95% CI) [2, 16]: 0.80
Non-fatal Cardiovascular Event, HR (95% CI) [2, 16]: 0.66
Key secondary endpoint: fatal events, % ([2]; key secondary composite endpoint, after reduction, share of overall events in category): 45.0%
Key secondary endpoint: total events before reduction, % ([2]; key secondary composite endpoint, before reduction, share of overall events in category): 42.0%
Key secondary composite endpoint, HR (95% CI) [2, 17]: 0.74
Primary composite endpoint, HR (95% CI) [2, 17]: 0.75
Key secondary composite endpoint, HR (95% CI) [2, 18]: 0.74
Primary composite endpoint, HR (95% CI) [2, 18]: 0.75
Key secondary composite endpoint, HR (95% CI) [2, 19]: 0.74
Primary composite endpoint, HR (95% CI) [2, 19]: 0.76
Key secondary composite endpoint, HR (95% CI) [2, 20]: 0.74
Primary composite endpoint, HR (95% CI) [2, 20]: 0.76
Key secondary composite endpoint, HR (95% CI) [2, 21]: 0.75
Primary composite endpoint, HR (95% CI) [2, 21]: 0.68
Key secondary composite endpoint, HR (95% CI) [2, 22]: 0.75
Primary composite endpoint, HR (95% CI) [2, 22]: 0.68
Key secondary composite endpoint, HR (95% CI) [2, 23]: 0.75
Primary composite endpoint, HR (95% CI) [2, 23]: 0.69
Key secondary composite endpoint, HR (95% CI) [2, 24]: 0.75
Primary composite endpoint, HR (95% CI) [2, 24]: 0.69
Key secondary composite endpoint, HR (95% CI) [2, 25]: 0.79
Primary composite endpoint, HR (95% CI) [2, 25]: 0.70
Key secondary composite endpoint, HR (95% CI) [2, 26]: 0.79
Primary composite endpoint, HR (95% CI) [2, 26]: 0.69
Key secondary composite endpoint, HR (95% CI) [2, 27]: 0.79
Primary composite endpoint, HR (95% CI) [2, 27]: 0.70
Key secondary composite endpoint, HR (95% CI) [2, 28]: 0.79
Primary composite endpoint, HR (95% CI) [2, 28]: 0.69
Total primary endpoint events, rate ratio ([2]; negative binomial model, Example 3): 0.70
Total key secondary composite endpoint events, HR (95% CI) [2, 29]: 0.71
Total primary composite endpoint events, RR (95% CI) [2, 29]: 0.69
Total key secondary composite endpoint events, RR (95% CI) [2, 30]: 0.72
Total primary composite endpoint events, RR (95% CI) [2, 30]: 0.70
Total key secondary composite endpoint events, RR (95% CI) [2, 31]: 0.71
Total primary composite endpoint events, RR (95% CI) [2, 31]: 0.67
Total key secondary composite endpoint events, RR (95% CI) [2, 32]: 0.71
Total primary composite endpoint events, RR (95% CI) [2, 32]: 0.68
Total key secondary endpoint events, HR ([2]; overall): 0.71
Cardiovascular deaths that could be prevented [2, 33]: 1
Coronary revascularizations that could be prevented [2, 33]: 8
Episodes of unstable angina that could be prevented [2, 33]: 2
Myocardial infarctions that could be prevented [2, 33]: 4
Strokes that could be prevented [2, 33]: 1
Cardiovascular deaths that could be prevented [2, 34]: 12
Coronary revascularizations that could be prevented [2, 34]: 76
Episodes of hospitalization for unstable angina that could be prevented [2, 34]: 16
Myocardial infarctions that could be prevented [2, 34]: 42
Strokes that could be prevented [2, 34]: 14
Primary endpoint: fatal events, % [2, 35]: (45.0) %
Primary endpoint: total events after reduction, % [2, 35]: (41.0) %
Total key secondary endpoint events, HR ([2]; primary prevention stratum): 0.71
Total key secondary endpoint events, HR ([2]; secondary prevention stratum): 0.70
Key Secondary Endpoint Events, % [2, 36]: (42.0) %
Primary Endpoint Events, % [2, 36]: (40.7) %
